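Following 48 hours of exposure in 96-well plates, responses at five concentrations were used to interpolate endpoints linearly. GI50 marks 50% less growth.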 Calls of active or inactive are those of the source. No stated cut-off is given here; in the data, active = GI50 up to about 1.1 µM and inactive = higher.
How the values were obtained:
Test in all cases: NCI anticancer screen, dose series, 48 h
786-0 = test system: 786-0
A498 = test system: A498
A549 = test system: A549
ACHN = test system: ACHN
BT-549 = test system: BT-549
CCRF-CEM = test system: CCRF-CEM
COLO 205 = test system: COLO 205
DLD-1 = test system: DLD-1
DMS-114 = test system: DMS-114
DMS-273 = test system: DMS-273
DU-145 = test system: DU-145
EKVX = test system: EKVX
HCC 2998 = test system: HCC 2998
HCT-116 = test system: HCT-116
HCT-15 = test system: HCT-15
HL-60 = test system: HL-60
HOP-18 = test system: HOP-18
HOP-62 = test system: HOP-62
HOP-92 = test system: HOP-92
HT-29 = test system: HT-29
Hs-578T = test system: Hs-578T
IGROV-1 = test system: IGROV-1
K562 = test system: K562
KM-20L2 = test system: KM-20L2
KM12 = test system: KM12
LOX IMVI = test system: LOX IMVI
LXFL 529 = test system: LXFL 529
M14 = test system: M14
M19-MEL = test system: M19-MEL
MDA-MB-231 = test system: MDA-MB-231
MDA-MB-435 = test system: MDA-MB-435
MDA-N = test system: MDA-N
MOLT-4 = test system: MOLT-4
Malme-3M = test system: Malme-3M
NCI-H226 = test system: NCI-H226
NCI-H23 = test system: NCI-H23
NCI-H460 = test system: NCI-H460
NCI-H522 = test system: NCI-H522
NCI/ADR-RES = test system: NCI/ADR-RES
OVCAR-3 = test system: OVCAR-3
OVCAR-4 = test system: OVCAR-4
OVCAR-5 = test system: OVCAR-5
OVCAR-8 = test system: OVCAR-8
PC-3 = test system: PC-3
RPMI-8226 = test system: RPMI-8226
RXF 393 = test system: RXF 393
SF-268 = test system: SF-268
SF-295 = test system: SF-295
SF-539 = test system: SF-539
SK-MEL-28 = test system: SK-MEL-28
SK-MEL-2 = test system: SK-MEL-2
SK-MEL-5 = test system: SK-MEL-5
SK-OV-3 = test system: SK-OV-3
SN12C = test system: SN12C
SNB-19 = test system: SNB-19
SNB-75 = test system: SNB-75
SNB-78 = test system: SNB-78
SR = test system: SR
SW-620 = test system: SW-620
T47D = test system: T47D
TK-10 = test system: TK-10
U-251 = test system: U-251
UACC-257 = test system: UACC-257
UACC-62 = test system: UACC-62
UO-31 = test system: UO-31
XF498 = test system: XF498

Nc1nc(N)c2c(Cl)c(CNc3ccc(Cl)c(Cl)c3)ccc2n1
GI50 (786-0): < 0.01 µM (active) | GI50 (A498): 0.0682 µM (active) | GI50 (A549): < 0.01 µM (active) | GI50 (ACHN): < 0.01 µM (active) | GI50 (BT-549): 4.49 µM (inactive) | GI50 (CCRF-CEM): < 0.01 µM (active) | GI50 (COLO 205): 0.239 µM (active) | GI50 (DLD-1): < 0.01 µM (active) | GI50 (DMS-114): < 0.01 µM (active) | GI50 (DMS-273): < 0.0259 µM (active) | GI50 (DU-145): 0.15 µM (active) | GI50 (EKVX): 2.87 µM (inactive) | GI50 (HCC 2998): 0.0146 µM (active) | GI50 (HCT-116): < 0.01 µM (active) | GI50 (HCT-15): < 0.01 µM | GI50 (HL-60): < 0.01 µM (active) | GI50 (HOP-18): 0.716 µM (active) | GI50 (HOP-62): 0.0171 µM (active) | GI50 (HOP-92): 0.445 µM (active) | GI50 (HT-29): < 0.01 µM (active) | GI50 (Hs-578T): 1.6 µM (inactive) | GI50 (IGROV-1): < 0.01 µM (active) | GI50 (K562): < 0.01 µM (active) | GI50 (KM-20L2): 0.225 µM (active) | GI50 (KM12): 0.0238 µM (active) | GI50 (LOX IMVI): < 0.01 µM (active) | GI50 (LXFL 529): < 0.0278 µM (active) | GI50 (M14): < 0.01 µM (active) | GI50 (M19-MEL): 0.0238 µM (active) | GI50 (MDA-MB-231): 1.52 µM (inactive) | GI50 (MDA-MB-435): < 0.01 µM (active) | GI50 (MDA-N): < 0.01 µM (active) | GI50 (MOLT-4): < 0.0536 µM (active) | GI50 (Malme-3M): 0.471 µM (active) | GI50 (NCI-H226): 12.9 µM (inactive) | GI50 (NCI-H23): 0.0102 µM (active) | GI50 (NCI-H460): < 0.01 µM (active) | GI50 (NCI-H522): 0.0499 µM (active) | GI50 (NCI/ADR-RES): < 0.01 µM (active) | GI50 (OVCAR-3): 0.168 µM (active) | GI50 (OVCAR-4): 0.871 µM (active) | GI50 (OVCAR-5): < 0.01 µM (active) | GI50 (OVCAR-8): < 0.01 µM (active) | GI50 (PC-3): < 0.01 µM (active) | GI50 (RPMI-8226): 0.181 µM (active) | GI50 (RXF 393): 0.337 µM (active) | GI50 (SF-268): 0.0116 µM (active) | GI50 (SF-295): < 0.01 µM (active) | GI50 (SF-539): 0.016 µM (active) | GI50 (SK-MEL-28): 0.78 µM (active) | GI50 (SK-MEL-2): 3.11 µM (inactive) | GI50 (SK-MEL-5): < 0.01 µM (active) | GI50 (SK-OV-3): 0.574 µM (active) | GI50 (SN12C): < 0.104 µM (active) | GI50 (SNB-19): 0.486 µM (active) | GI50 (SNB-75): 2.64 µM (inactive) | GI50 (SNB-78): 7.19 µM (inactive) | GI50 (SR): < 0.0371 µM (active) | GI50 (SW-620): < 0.01 µM (active) | GI50 (T47D): 6.85 µM (inactive) | GI50 (TK-10): 0.256 µM (active) | GI50 (U-251): < 0.0215 µM (active) | GI50 (UACC-257): 0.138 µM (active) | GI50 (UACC-62): < 0.01 µM (active) | GI50 (UO-31): 0.0294 µM (active) | GI50 (XF498): 2.07 µM (inactive)

From ChEMBL document CHEMBL1201862, “PubChem BioAssay data set” (2004)
